Source: paper PMC11433764, “A Novel Compound from the Phenylsulfonylpiperazine Class: Evaluation of In Vitro Activity on Luminal Breast Cancer Cells” (Molecules, 2024)
pIC50: −log10 of the molar value.

Legend:
Format in all cases: cell-based
ENTPD1 = assay: qPCR, ENTPD1 expression in MCF7; settings: vs untreated cells
Description: (§1) Total RNA was extracted using Trizol reagent (Invitrogen), according to the manufacturer’s protocol. The quality of extracted RNA was verified by the spectrophotometric readings at 260 and 280 nm (Nanodrop 1000-ThermoFisher), and the first strand of cDNA was synthesized from 1 µg of total RNA via reverse transcription using GoScript™ Reverse Transcription Mix (Promega, Madison, WI, EUA). qPCR analysis was performed using 5.0 μL of Power SYBR Green PCR Master Mix (Applied Biosystems, Carlsbad, CA, USA) and run on a StepOnePlus Systems (Applied Biosystems, Carlsbad, CA, USA) device with the following cycling parameters: 40 cycles of 95 °C for 10 s and 60 °C for 30 s. The comparative Cq was used to find the relative expression of CDH1 (E-caderina), ENTPD1 (ectonucleoside triphosphate diphosphohydrolase 1), ENTPD2 (ectonucleoside triphosphate diphosphohydrolase 2), ENTPD3 (ectonucleoside triphosphate diphosphohydrolase 3), ENTPD5 ([…]) and KRT10 (keratin 10) genes, after relative standard curve optimization. β-2-microglobulin (β2M) was used as a reference gene. The primer sequences are described in Table 3.

MDA-MB-231 = assay: MTT cell viability, MDA-MB-231
Description: Four different breast cells lines were used in this study: MCF-10A (non-tumorigenic), MCF7 (ER+ BC), MDA-MB453 (HER2+ BC) and MDA-MB231 (TNBC). All lineages were obtained from the American Type Culture Collection (ATCC; Manassas, VA, USA) and maintained at a temperature of 37 °C according to the supplier’s recommendations. Only MDA-MB231 cells were not kept in an atmosphere of 5% CO2. MCF-10A was grown in Dulbecco’s Modified Eagle’s Medium (DMEM F12, Gibco, ThermoFisher Scientific, Waltham, MA, USA) supplemented with 20 ng/mL epidermal growth factor (Gibco, ThermoFisher Scientific, Waltham, MA, USA), 0.5 μg/mL hydrocortisone (Sigma-Aldrich, Sigma-Aldrich, St. Louis, MO, USA) and 10 μg/mL insulin (Gibco, ThermoFisher Scientific, Waltham, MA, USA). MCF7 was cultivated in Roswell Park Memorial Institute Medium (RPMI-1640, Gibco, ThermoFisher Scientific, Waltham, MA, USA), MDA-MB453 in IMDM and MDA-MB231 in Leibovitz’s medium (L-15, Gibco, ThermoFisher Scientific, Waltham, MA, USA). All media were supplemented with 10% fetal bovine serum (FBS, Gibco, ThermoFisher Scientific, Waltham, MA, USA) and 50 µg/mL of gentamicin (Cultilab, Campinas, SP, Brazil). The cells were confirmed to be free of mycoplasma and passaged using a 0.25% trypsin-EDTA solution when confluency reached 80–90%.
Cell viability was determined by spectrophotometric quantification of MTT (3-[4,5-dimethyl-thiazol-2-yl]-2,5-diphenyltetrazolium bromide—Invitrogen. Waltham, MA, USA) reduction to formazan crystals. Cells were seeded at the density of 1 × 10^4 cells/well (MCF-10A, MDA-MB453), 1.5 × 10^4 cells/well (MDA-MB231) and 3 × 10^3 cells/well (MCF7) in 96-well culture dishes and incubated with different concentrations of the compounds (1.25, 2.5, 5, 10, 20, 40, 80 and 160 µM) for 48 h. The medium was than replaced by MTT solution (0.5 mg/mL) and plates were kept at 37 °C for 4 h. After the aspiration of the media, the formazan crystals were diluted with 100 μL of dimethyl-sulfoxide (DMSO)/well and the absorbance at 570 nm was measured using a spectrophotometer (Thermo Plate TP-Reader, Waltham, MA, USA). Cytotoxicity was calculated using the following formula: Cytotoxicity (%) = [absorbance of cells treated with the compounds/absorbance of cells treated with DMSO) × 100]. The IC50 was determined for each compound and was defined as the concentration required to inhibit 50% of cell growth, compared to the control sample (cells treated with DMSO 0.05%).
Data were presented as the mean ± standard deviation (SD) and analyzed using GraphPad Prism 9.0 software (GraphPad Software Inc., La Jolla, CA, USA). All data were assayed in triplicate. Statistical analysis was performed using one-way ANOVA, Tukey´s HSD post hoc test and Student’s t-test. The IC50 was calculated using non-linear regression and the selectivity index (SI) was calculated by the ratio between the IC50 values corresponding to the non-tumor cell lineage (MCF-10A) and the IC50 values corresponding to the BC cell lines. Statistical significance was accepted at p values < 0.05.

CDH1 = assay: qPCR, CDH1 expression in MCF7; settings: vs untreated cells
Description: as §1

ENTPD3 = assay: qPCR, ENTPD3 expression in MCF7; settings: vs untreated cells
Description: as §1

ENTPD2 = assay: qPCR, ENTPD2 expression in MCF7; settings: vs untreated cells
Description: as §1

KRT10 = assay: qPCR, KRT10 expression in MCF7; settings: vs untreated cells
Description: as §1

ENTPD5 = assay: qPCR, ENTPD5 expression in MCF7; settings: vs untreated cells
Description: as §1

## O=C(c1ccc(-n2cnnn2)cc1)N1CCN(S(=O)(=O)c2ccc(Cl)cc2)CC1 [Compound 3, (4-(1H-tetrazol-1-yl)phenyl)(4-((4-chlorophenyl)sulfonyl)piperazin-1-yl)methanone]
ENTPD1; MCF7, 1.125 µM
  Fold Change ENTPD1 mRNA: 1.102
ENTPD1; MCF7, 2.25 µM
  Fold Change ENTPD1 mRNA: 1.331
ENTPD1; MCF7, 4.5 µM
  Fold Change ENTPD1 mRNA: 1.006
MDA-MB-231; Homo sapiens, MDA-MB-231, 48 h, MTT, 1.25–160 μM, read-out: IC50 MDA-MB-231
  pIC50: 4.08
MDA-MB-231; IC50 MCF10A / IC50 MDA-MB-231
  SI MDA-MB-231: >1.93
CDH1; MCF7, 1.125 µM
  Fold Change CDH1 mRNA: 1.874
CDH1; MCF7, 2.25 µM
  Fold Change CDH1 mRNA: 1.045
ENTPD3; MCF7, 1.125 µM
  Fold Change ENTPD3 mRNA: 1.641
ENTPD3; MCF7, 2.25 µM
  Fold Change ENTPD3 mRNA: 1.074
ENTPD3; MCF7, 4.5 µM
  Fold Change ENTPD3 mRNA: 1.229
ENTPD2; MCF7, 1.125 µM
  Fold Change ENTPD2 mRNA: 1.374
ENTPD2; MCF7, 2.25 µM
  Fold Change ENTPD2 mRNA: 1.417
ENTPD2; MCF7, 4.5 µM
  Fold Change ENTPD2 mRNA: 1.109
KRT10; MCF7, 1.125 µM
  Fold Change KRT10 mRNA: 1.309
KRT10; MCF7, 2.25 µM
  Fold Change KRT10 mRNA: 1.913
KRT10; MCF7, 4.5 µM
  Fold Change KRT10 mRNA: 1.383
ENTPD5; MCF7, 1.125 µM
  Fold Change ENTPD5 mRNA: 2.046
ENTPD5; MCF7, 2.25 µM
  Fold Change ENTPD5 mRNA: 1.437
ENTPD5; MCF7, 4.5 µM
  Fold Change ENTPD5 mRNA: 1.306
